Experimental data reported in patent publication US20250326744A1, “PIPERAZINE DERIVATIVE OR SALT THEREOF, AND PHARMACEUTICAL COMPOSITION” (priority 2022, published 2025).
Counter-ions that a name gives are not always drawn.

Key:
[1] = test system: mexB (PA) strain; assay: Combinational effect with antibacterial agent against Pseudomonas aeruginosa (Test Examples 2 and 4): mexB (PA) strain with LVFX, TC or AZT at 1/4 MIC, EC99; assay type: cell-based; details: Table 52, Test Example 2, 16 to 20 hours culture, OD595; for EC99, mexB (PA), AZT: combined with AZT at 1/4 MIC; for EC99, mexB (PA), LVFX: combined with LVFX at 1/4 MIC; for EC99, mexB (PA), TC: combined with TC at 1/4 MIC
How it was run: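 EC99 denotes the minimum test-compound concentration (range 0–800 μM) that suppresses ≥99% of growth, measured by OD595, when combined with ¼ MIC levofloxacin (LVFX), tetracycline or aztreonam. The efflux-pump mutant mexB (PA), expressing mainly MexAB-OprM, was inoculated at 10^4–5 CFU/well in CAMHB for 16–20 h.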

[2] = test system: S-3769 strain; assay: Combinational effect with antibacterial agent against Pseudomonas aeruginosa (Test Examples 2 and 4): S-3769 strain with AMK or GM at 1/4 MIC, EC99; assay type: cell-based; details: Table 52, Test Example 2, 16 to 20 hours culture, OD595; for EC99, S-3769 strain, AMK: combined with AMK at 1/4 MIC; for EC99, S-3769 strain, GM: combined with GM at 1/4 MIC
How it was run: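 EC99, the lowest test-compound concentration inhibiting growth by ≥99% (OD595), was measured with aminoglycoside AMK or GM held at ¼ MIC. Strain S-3769, a MexY-overexpressing clinical isolate, was cultured in CAMHB at 10^4 to 5 CFU/well for 16–20 h; compound range 0–800 μM.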

| Compound | EC99, mexB (PA), AZT [1] | EC99, mexB (PA), LVFX [1] | EC99, mexB (PA), TC [1] | EC99, S-3769 strain, AMK [2] | EC99, S-3769 strain, GM [2] |
| --- | --- | --- | --- | --- | --- |
| CCOc1cccc(F)c1CN1CCN(C(=O)[C@H](N)C2CCN(CCc3cc(Cl)ccc3-c3ccccc3O)CC2)CC1 [Example 107, (R)-2-amino-2-(1-(2-(4-chloro-2′-hydroxy-[1,1′-biphenyl]-2-yl)ethyl)piperidin-4-yl)-1-(4-(2-ethoxy-6-fluorobenzyl)piperazin-1-yl)ethan-1-one] | A (12.5 μM<EC99≤25 μM) | A (12.5 μM<EC99≤25 μM) | A (12.5 μM<EC99≤25 μM) | A (12.5 μM<EC99≤25 μM) | A (12.5 μM<EC99≤25 μM) |
| CCOc1cccc(F)c1CN1CCN(C(=O)[C@H](N)C2CCN(CCc3cc(Cl)ccc3-c3ccc(F)cc3O)CC2)CC1 [Example 108, Hydrochloride of (R)-2-amino-2-(1-(2-(4-chloro-4′-fluoro-2′-hydroxy-[1,1′-biphenyl]-2-yl)ethyl)piperidin-4-yl)-1-(4-(2-ethoxy-6-fluorobenzyl)piperazin-1-yl)ethan-1-one] | B (25 μM<EC99≤100 μM) | B (25 μM<EC99≤100 μM) | A (12.5 μM<EC99≤25 μM) | S (EC99≤12.5 μM) | A (12.5 μM<EC99≤25 μM) |
| CCOc1cccc(F)c1CN1CCN(C(=O)[C@H](N)C2CCN(CCc3ccccc3-c3ccccc3)CC2)CC1 [Example 109, hydrochloride of (R)-2-(1-(2-([1,1′-biphenyl]-2-yl)ethyl)piperidin-4-yl)-2-amino-1-(4-(2-ethoxy-6-fluorobenzyl)piperazin-1-yl)ethan-1-one] | B (25 μM<EC99≤100 μM) | C (100 μM<EC99) | B (25 μM<EC99≤100 μM) | 4 µM | A (12.5 μM<EC99≤25 μM) |
| CCOc1cccc(F)c1CN1CCN(C(=O)[C@H](N)C2CCN(CCc3ccccc3F)CC2)CC1 [Example 121, Hydrochloride of (R)-2-amino-1-(4-(2-ethoxy-6-fluorobenzyl)piperazin-1-yl)-2-(1-(2-fluorophenethyl)piperidin-4-yl)ethan-1-one] | C (100 μM<EC99) | C (100 μM<EC99) | C (100 μM<EC99) | B (25 μM<EC99≤100 μM) | B (25 μM<EC99≤100 μM) |
| CCOc1cccc(F)c1CN1CCN(C(=O)[C@H](N)C2CCN(CCc3ccccc3OC)CC2)CC1 [Example 122, Hydrochloride of (R)-2-amino-1-(4-(2-ethoxy-6-fluorobenzyl)piperazin-1-yl)-2-(1-(2-methoxyphenethyl)piperidin-4-yl)ethan-1-one] | C (100 μM<EC99) | C (100 μM<EC99) | C (100 μM<EC99) | B (25 μM<EC99≤100 μM) | A (12.5 μM<EC99≤25 μM) |
| CCOc1cccc(F)c1CN1CCN(C(=O)[C@H](N)C2CCN(CCC3CCCCO3)CC2)CC1 (some centres unmarked) [Example 123] | C (100 μM<EC99) | C (100 μM<EC99) | C (100 μM<EC99) | C (100 μM<EC99) | C (100 μM<EC99) |
| CCOc1cccc(F)c1CN1CCN(C(=O)[C@H](N)C2CCN(CCc3cc(Cl)ccc3-c3ccccc3)CC2)CC1 [Example 137, (R)-2-amino-2-(1-(2-(4-chloro-[1,1′-biphenyl]-2-yl)ethyl)piperidin-4-yl)-1-(4-(2-ethoxy-6-fluorobenzyl)piperazin-1-yl)ethan-1-one] | S (EC99≤12.5 μM) | A (12.5 μM<EC99≤25 μM) | A (12.5 μM<EC99≤25 μM) | S (EC99≤12.5 μM) | S (EC99≤12.5 μM) |
| CCOc1cccc(F)c1CN1CCN(C(=O)[C@H](N)C2CCN(CCc3cc(Cl)ccc3-c3ccccc3F)CC2)CC1 [Example 139, hydrochloride of (R)-2-amino-2-(1-(2-(4-chloro-2′-fluoro-[1,1′-biphenyl]-2-yl)ethyl)piperidin-4-yl)-1-(4-(2-ethoxy-6-fluorobenzyl)piperazin-1-yl)ethan-1-one] | A (12.5 μM<EC99≤25 μM) | A (12.5 μM<EC99≤25 μM) | A (12.5 μM<EC99≤25 μM) | S (EC99≤12.5 μM) | S (EC99≤12.5 μM) |
| CCOc1cccc(F)c1CN1CCN(C(=O)[C@H](N)C2CCN(CCc3c[nH]c4ccccc34)CC2)CC1 [Example 148, hydrobromide of (R)-2-(1-(2-(1H-indol-3-yl)ethyl)piperidin-4-yl)-2-amino-1-(4-(2-ethoxy-6-fluorobenzyl)piperazin-1-yl)ethan-1-one] | C (100 μM<EC99) | C (100 μM<EC99) | B (25 μM<EC99≤100 μM) | S (EC99≤12.5 μM) | S (EC99≤12.5 μM) |
| CCOc1cccc(F)c1CN1CCN(C(=O)[C@H](N)C2CCN(CCc3cccc4ccc(OC)cc34)CC2)CC1 [Example 149, Hydrobromide of (R)-2-amino-1-(4-(2-ethoxy-6-fluorobenzyl)piperazin-1-yl)-2-(1-(2-(7-methoxynaphthalen-1-yl)ethyl)piperidin-4-yl)ethan-1-one] | C (100 μM<EC99) | C (100 μM<EC99) | B (25 μM<EC99≤100 μM) | S (EC99≤12.5 μM) | S (EC99≤12.5 μM) |
| CCOc1cccc(F)c1CN1CCN(C(=O)[C@H](N)C2CCN(CCc3csc4ccccc34)CC2)CC1 [Example 150, Hydrobromide of (R)-2-amino-2-(1-(2-(benzo[b]thiophen-3-yl)ethyl)piperidin-4-yl)-1-(4-(2-ethoxy-6-fluorobenzyl)piperazin-1-yl)ethan-1-one] | B (25 μM<EC99≤100 μM) | C (100 μM<EC99) | B (25 μM<EC99≤100 μM) | S (EC99≤12.5 μM) | S (EC99≤12.5 μM) |
| CCOc1cccc(F)c1CN1CCN(C(=O)[C@H](N)C2CCN(CCC3CCCc4ccccc43)CC2)CC1 (stereo partly drawn) [Example 151, Hydrobromide of (2R)-2-amino-1-(4-(2-ethoxy-6-fluorobenzyl)piperazin-1-yl)-2-(1-(2-(1,2,3,4-tetrahydronaphthalen-1-yl)ethyl)piperidin-4-yl)ethan-1-one] | C (100 μM<EC99) | C (100 μM<EC99) | C (100 μM<EC99) | B (25 μM<EC99≤100 μM) | B (25 μM<EC99≤100 μM) |
| CCOc1cccc(F)c1CN1CCN(C(=O)[C@H](N)C2CCN(CCc3coc4ccccc34)CC2)CC1 [Example 152, Hydrobromide of (R)-2-amino-2-(1-(2-(benzofuran-3-yl)ethyl)piperidin-4-yl)-1-(4-(2-ethoxy-6-fluorobenzyl)piperazin-1-yl) ethan-1-one] | C (100 μM<EC99) | C (100 μM<EC99) | C (100 μM<EC99) | S (EC99≤12.5 μM) | S (EC99≤12.5 μM) |
